A word on the EC50: it is the concentration giving half of the maximal effect.

Test [1] addresses T1, RDL receptors (Drosophila melanogaster, UniProt P25123).
T1 sequence (P25123 45-606): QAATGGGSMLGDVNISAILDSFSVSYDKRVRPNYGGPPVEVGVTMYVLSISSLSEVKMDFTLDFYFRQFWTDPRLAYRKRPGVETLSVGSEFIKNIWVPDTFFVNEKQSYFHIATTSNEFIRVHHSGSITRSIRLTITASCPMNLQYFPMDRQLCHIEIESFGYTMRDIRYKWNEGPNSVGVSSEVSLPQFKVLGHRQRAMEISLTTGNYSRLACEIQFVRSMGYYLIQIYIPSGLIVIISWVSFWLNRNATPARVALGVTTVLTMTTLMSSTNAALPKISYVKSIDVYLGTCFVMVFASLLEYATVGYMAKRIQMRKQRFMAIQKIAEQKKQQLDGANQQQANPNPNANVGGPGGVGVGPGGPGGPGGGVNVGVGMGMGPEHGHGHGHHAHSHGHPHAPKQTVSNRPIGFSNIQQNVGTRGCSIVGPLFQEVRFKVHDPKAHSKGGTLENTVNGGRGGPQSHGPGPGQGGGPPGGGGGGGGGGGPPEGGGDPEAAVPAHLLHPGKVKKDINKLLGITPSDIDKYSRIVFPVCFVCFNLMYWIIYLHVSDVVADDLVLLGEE
The test can be described thus: Two-electrode voltage clamp of RDL receptors expressed in Xenopus oocytes. Format: cell-based. Conditions: for EC50: EC50, RDL receptors in Xenopus oocytes; for nH (Hill coefficient) / Imax/Imax(GABA) / pEC50: means ± SEM; for Imax/Imax(GABA): maximal current relative to maximal GABA-evoked response; for pEC50: -60 mV, N/R = no response. (Two-electrode voltage clamp is typically applied to oocytes expressing channels or transporters.)

Test [2] has as its target T1, RDL receptors. Conditions: background statement; cited from earlier work.
[3] abbreviates: RDL receptors in Xenopus oocytes.
Setting [4] is: applied at concentrations up to 10 mM.

Values joined by “and” are separate entries in the source; they are usually repeats but may differ in a detail not shown here. Equal values may be shown once. “Also recorded” adds a separate entry of the source.

For the molecule `NCC=CC(=O)O` [TACA, 4-amino-2-butenoic acid], in test [1] (Table 1), the EC50 worked out at 36.7 µM. In test [1] (setting [3]), the “nH (Hill coefficient)” value is recorded as 1.8 ± 0.2. Further, the “Imax/Imax(GABA)” value in test [1] came to 1.0 ± 0.02.

For the molecule `NCCC(=O)O` [β-alanine], in test [1], the half-maximal effective concentration (EC50) was 800 µM and ~1000 µM; the “Imax/Imax(GABA)” value is 1.0 ± 0.03. In addition, the concentration giving a half-maximal response (EC50) in test [1] (Table 1) was determined as 807 µM. The “nH (Hill coefficient)” value in test [1] (setting [3]) is reported as 2.0 ± 0.3.

On to `NCC(=O)O` [glycine], for which the entries for the “activation of RDL receptors (in words)” value in test [1] (setting [3]) and in test [1] (setting [4]) were “inactive” and “failed to activate”, respectively. Also, in test [1] (setting [3]), the pEC50 entry is given as “N/R”.

For picrotoxin, in test [2], the “inhibition of homomeric RDL receptors (in words)” value is “inhibited”.

As to `CN1CCc2cc3c(cc2[C@H]1[C@@H]1OC(=O)c2c1ccc1c2OCO1)OCO3` [bicuculline], in test [2], the “inhibition of homomeric RDL receptors (in words)” value is on record as “not inhibited”.

Consider `NCc1cc(=O)[nH]o1` [muscimol], for which the half-maximal effective concentration (EC50) in test [1] (Table 1) is 9.04 µM. For the same molecule, in test [1] (setting [3]), the “agonist type at RDL receptors” value is “full agonist” and the “nH (Hill coefficient)” value worked out at 2.2 ± 0.6. Besides, the “Imax/Imax(GABA)” value in test [1] is 0.87 ± 0.03.

`NCCCC(=O)O` [GABA, γ-aminobutyric acid]: the “nH (Hill coefficient)” value in test [1] (setting [3]) is 1.8 ± 0.2.

`NCCCCC(=O)O` [5-AV, 5-aminovaleric acid]: in test [1], the 50% effective concentration (EC50) was 1100 µM and ~1000 µM; the “Imax/Imax(GABA)” value is reported as 0.85 ± 0.1. A half-maximal effect in test [1] (Table 1) (EC50) was put at 1120 µM. For the same molecule, the “nH (Hill coefficient)” value in test [1] (setting [3]) was 1.0 ± 0.3.

`NCCCCO` [4-AB, 4-amino-1-butanol]: in test [1] (setting [3]), the “activation of RDL receptors (in words)” value is “inactive” and the pEC50 entry is “N/R”. Besides, the “activation of RDL receptors (in words)” value in test [1] (setting [4]) was “failed to activate”.

Take `NCCS(=O)(=O)O` [taurine]: the half-maximal effective concentration (EC50) in test [1] and in test [1] (Table 1) was greater than 10000 µM each time.

For the molecule `NCCc1ccc(O)cc1` [tyramine], the entries for the “activation of RDL receptors (in words)” value in test [1] (setting [3]) and in test [1] (setting [4]) were “inactive” and “failed to activate”, respectively. Moreover, the pEC50 result in test [1] (setting [3]) is on record as “N/R”.

`Nc1ccc(C(=O)O)cc1` [PABA, p-aminobenzoic acid]: in test [1] (setting [3]), the pEC50 result was “N/R”. Further, in test [1] (setting [4]), the “activation of RDL receptors (in words)” value is “failed to activate”.

With `Oc1noc2c1CCNC2` [THIP, 4,5,6,7-tetrahydroisoxazolo[5,4-c]pyridin-3-ol], in test [1], the EC50 came to 220 µM and the “Imax/Imax(GABA)” value was 0.57 ± 0.06. In test [1] (Table 1), this molecule had a concentration giving a half-maximal response (EC50) of 226 µM. For the same molecule, in test [1] (setting [3]), the “agonist type at RDL receptors” value is recorded as “partial agonist” and the “nH (Hill coefficient)” value stood at 2.4 ± 1.0.

`NCCCP(=O)(O)O` [3-APP, 3-aminopropylphosphonic acid]: in test [1] (setting [3]), the “activation of RDL receptors (in words)” value is “no activating effect; also recorded: inactive” and the pEC50 result was “N/R”.

`O=C(O)C1=CCNCC1` [isoguvacine] had a 50% effective concentration (EC50) in test [1] (Table 1) of 64.9 µM. The “nH (Hill coefficient)” value in test [1] (setting [3]) stood at 1.9 ± 0.2. In addition, the “Imax/Imax(GABA)” value in test [1] is 0.97 ± 0.03.
